Like-named read-outs stand apart in the source and are kept apart here.
Legend:
PAK1 = PAK1 (Homo sapiens, UniProt Q13153); test: PAK1 IC50 determination, Z'-LYTE kinase assay; assay type: biochemical; details: [ATP]=10×Km; [PAK1]=1 ng; read-out: IC50 against PAK1
Experimental: Protocol for determining IC50 Values for test compounds at [ATP]=10×Km; [PAK1]=1 ng
Add 2 ml 5× Kinase Buffer to 8 ml water to prepare […] of Kinase Buffer A.
• Thaw the concentrated stock of test compound at room temperature. • 2.1. Add 10 μl of 100% DMSO to row A, columns 2-11 (wells A2-A11) in a 96-well assay plate (non-binding surface). To well A1, add 15 μl of the concentrated stock of test compound. This will be the highest concentration of test compound in a 10-point titration curve. Use a concentration that is 100× the final desired 1× concentration per 10 μl kinase reaction. For example, if the final 1× concentration of 100 μM is desired for the highest concentration of test compound in the 10 point titration curve, add 15 μl of 10 mM test compound to well A1. • 2.2. Titrate the 100× test compound three-fold across the assay plate from well A1 to well A10. To perform this threefold titration, transfer 5 μl of the 100× test compound from well A1 to the 10 μl of 100% DMSO in well A2. Repeat for wells A2-A10. Discard the final 5 μl from well A10 so that all wells contain 10 μl. […] This completes the 10-point three-fold titration of test compound at 100× concentration. • 2.3. Transfer a 2 μl aliquot of the 100× test compound titration series from each well in row A of the 96-well assay plate (wells A1-A12) to row B (wells B1-B12). Add 48 μl of complete kinase reaction buffer to each well in row B to dilute the 100× three-fold titration series of test compound to 4× (the DMSO will also be diluted, to 4%). • 2.4. Transfer 2.5 μl of the 4× concentrated three-fold titration series of test compound from row B of the 96-well assay plates to quadruplicate wells of a 384-well assay plate. Each well in columns 21-24 should contain 2.5 μl of 4% DMSO (no compound) in complete kinase reaction buffer. This 2.5 μl addition of 4× test compound in 4% DMSO produces a 1× concentration of test compound in 1% DMSO for a 10 μl kinase reaction. • 2.5. Dispense 2.5 μl of complete kinase reaction buffer to each well in columns 23-24 of the 384-well assay plate.
• 1. Prepare 500 μl of 4 μM Z′-LYTE® Phospho-peptide by adding 2 μl of 1 mM Z′-LYTE® Phospho-peptide to 498 μl of complete kinase reaction buffer. • 2. Dispense 5 μl of the 4 μM Z′-LYTE® Phospho-peptide (2×) to each well in column 24 of the 384-well assay plate. • 3. Prepare 1000 μl of 4 μM Z′-LYTE® Peptide Substrate (2×)/2× kinase solution in complete kinase reaction buffer. If necessary, prepare an intermediate dilution of the kinase in complete kinase reaction buffer before preparing the Z′-LYTE™ Peptide Substrate (2×)/2× kinase solution. Use the appropriate 2× kinase concentration in the assay to phosphorylate 20-50% of the 0% inhibition controls at the ATP concentration desired. • 4. […]

[1] = Microsomal stability, human (HLM); assay type: in vitro ADME; details: human microsomes; for CLh: in mL/min/kg (unit assumed); for microsomal CLint / half-life: liver microsomes; for half-life: read-out: t½
[2] = Pharmacokinetic (PK) assessment in rats; assay type: in vivo; details: for Fabs, % (from AUCINF) / Fabs, % (from AUClast): PO 10 mg/kg versus IV 2 mg/kg; for C0 / Cmax / MRT inf / Tmax / clearance / MRT last / half-life / CL/F / Vd/F / AUC(0-inf) / AUC(0-t) / Vd: rat, plasma; for MRT last: read-out: MRTlast; for half-life: read-out: T ½ (converted); for Vd/F: read-out: Vz/F
larger kinase panel = test: Selectivity against a larger kinase panel; assay type: binding; details: in words
[3] = Microsomal stability, mouse (MLM); assay type: in vitro ADME; details: for microsomal CLint / half-life: liver microsomes; for half-life: read-out: t½; for ER / CLh: mouse microsomes; for CLh: in mL/min/kg (unit assumed)
[4] = system: other PAK family members (PAK2, PAK3, PAK4, PAK6, PAK7); test: Inhibitory activity against other PAK family members; assay type: biochemical; details: in words
Experimental: A cell-based small molecule screening with 50,024 compounds was performed based on AML cell lines that grow in a PAK1-dependent manner, which has been previously described (Pandolfi et al., 2015). This was followed by single point PAK1 enzymatic activity screening against 360 compounds. Forty-six identified compounds that scored positive in this assay were subjected to enzymatic activity assays against other PAK family kinases including PAK2, PAK3, PAK4, PAK6, and PAK7. […] Those compounds were studied in further detail and key biochemical, pharmacokinetic, and structure-activity characteristics were determined.

[5] = Microsomal stability, rat (RLM); assay type: in vitro ADME; details: rat microsomes; for microsomal CLint / half-life: liver microsomes; for half-life: read-out: t½; for CLh: in mL/min/kg (unit assumed)
[6] = iv, 2 mg/kg, IV, 2 mg/kg, mean, read-out: AUCINF
[7] = iv, 2 mg/kg, IV, 2 mg/kg, mean, read-out: AUClast
[8] = iv, 2 mg/kg, IV, 2 mg/kg, mean, read-out: Vss
[9] = iv, 2 mg/kg, IV, 2 mg/kg, mean, read-out: Vz
[10] = iv, 2 mg/kg, IV, dose 2 mg/kg, summary section, no unit printed there, read-out: AUCINF, IV plasma
[11] = iv, 2 mg/kg, IV, dose 2 mg/kg, summary section, no unit printed there, read-out: AUClast, IV plasma
[12] = po, 10 mg/kg, PO, 10 mg/kg, mean, read-out: AUCINF
[13] = po, 10 mg/kg, PO, 10 mg/kg, mean, read-out: AUClast
[14] = po, 10 mg/kg, PO, dose 10 mg/kg, summary section, no unit printed there, read-out: AUCINF, PO plasma
[15] = po, 10 mg/kg, PO, dose 10 mg/kg, summary section, no unit printed there, read-out: AUClast, PO plasma

Chain of PAK1 (Q13153 whole entry): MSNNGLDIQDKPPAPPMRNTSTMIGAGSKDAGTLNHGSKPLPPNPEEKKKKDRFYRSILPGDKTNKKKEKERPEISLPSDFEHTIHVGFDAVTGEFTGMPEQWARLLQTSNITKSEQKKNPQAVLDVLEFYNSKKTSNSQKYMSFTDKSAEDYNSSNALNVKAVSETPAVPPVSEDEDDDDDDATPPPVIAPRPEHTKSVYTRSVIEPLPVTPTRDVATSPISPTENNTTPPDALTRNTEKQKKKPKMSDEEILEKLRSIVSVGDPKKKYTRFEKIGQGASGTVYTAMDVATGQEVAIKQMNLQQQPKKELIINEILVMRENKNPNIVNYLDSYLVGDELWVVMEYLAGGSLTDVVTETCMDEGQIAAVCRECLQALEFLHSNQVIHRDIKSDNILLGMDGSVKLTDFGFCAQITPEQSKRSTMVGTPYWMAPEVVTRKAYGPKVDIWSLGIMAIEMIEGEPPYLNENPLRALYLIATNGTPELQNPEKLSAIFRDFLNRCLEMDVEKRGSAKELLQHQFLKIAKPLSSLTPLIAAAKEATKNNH

SMILES: COc1cccc(-c2oncc2CN2CCN(C(C)=O)CC2)c1 [Compound T813-0242, 1-(4-((5-(3-Methoxyphenyl)isoxazol-4-yl)methyl)piperazin-1-yl)ethanone]
- IC50 (PAK1): 900 nM
- ER [1]: 0.66
- CLh [1]: 14.31
- microsomal CLint [1]: 38.8 µL/min/mg
- half-life [1]: 71.4 min
- K el ([2]; IV, 2 mg/kg, mean): 3.03 h⁻¹
- Fabs, % (from AUCINF) [2]: 3.8%
- Fabs, % (from AUClast) [2]: 3.8%
- K el ([2]; PO, 10 mg/kg, mean): 1.05 h⁻¹
- C0 ([2]; IV, 2 mg/kg, mean): 3150 ng/mL
- Cmax ([2]; IV, 2 mg/kg, mean): 2210 ng/mL
- MRT inf ([2]; IV, 2 mg/kg, mean): 18 min
- Tmax ([2]; IV, 2 mg/kg, mean): 4.8 min
- clearance ([2]; IV, 2 mg/kg, mean): 36.7 mL/min/kg
- MRT last ([2]; IV, 2 mg/kg, mean): 17.4 min
- half-life ([2]; IV, 2 mg/kg, mean): 13.8 min
- CL/F ([2]; PO, 10 mg/kg, mean): 974 mL/min/kg
- Cmax ([2]; PO, 10 mg/kg, mean): 202 ng/mL
- MRT inf ([2]; PO, 10 mg/kg, mean): 50.4 min
- Tmax ([2]; PO, 10 mg/kg, mean): 19.8 min
- MRT last ([2]; PO, 10 mg/kg, mean): 45 min
- half-life ([2]; PO, 10 mg/kg, mean): 41.4 min
- Vd/F ([2]; PO, 10 mg/kg, mean): 56.2 L/kg
- AUC(0-inf) [2, 6]: 911 ng·h/mL
- AUC(0-t) [2, 7]: 909 ng·h/mL
- Vd [2, 8]: 0.65 L/kg
- Vd [2, 9]: 0.73 L/kg
- AUC(0-inf) [2, 10]: 911 ng·h/mL
- AUC(0-t) [2, 11]: 909 ng·h/mL
- AUC(0-inf) [2, 12]: 175 ng·h/mL
- AUC(0-t) [2, 13]: 171 ng·h/mL
- AUC(0-inf) [2, 14]: 175 ng·h/mL
- AUC(0-t) [2, 15]: 171 ng·h/mL
- inhibition against a larger kinase panel (larger kinase panel): no significant inhibition
- microsomal CLint [3]: 44.4 µL/min/mg
- half-life [3]: 62.4 min
- ER [3]: 0.66
- CLh [3]: 59.41
- inhibitory activity against any of the other PAK family members [4]: no significant inhibitory activity
- microsomal CLint [5]: 34 µL/min/mg
- half-life [5]: 81.5 min
- ER [5]: 0.53
- CLh [5]: 28.97

SMILES: CCC1CCCCN1c1cc(C)nc2nc(-c3ccc(C)cc3)nn12 (stereo not drawn) [Compound D245-0091, 7-(2-Ethylpiperidin-1-yl)-5-methyl-2-(p-tolyl)-[1,2,4]triazolo[1,5-a]pyrimidine]
- IC50 (PAK1): 5000 nM
- ER [1]: 0.83
- CLh [1]: 18.11
- microsomal CLint [1]: 114 µL/min/mg
- half-life [1]: 24.3 min
- K el ([2]; IV, 2 mg/kg, mean): 0.42 h⁻¹
- Fabs, % (from AUCINF) [2]: 9.4%
- Fabs, % (from AUClast) [2]: 9.1%
- K el ([2]; PO, 10 mg/kg, mean): 0.37 h⁻¹
- C0 ([2]; IV, 2 mg/kg, mean): 1010 ng/mL
- Cmax ([2]; IV, 2 mg/kg, mean): 740 ng/mL
- MRT inf ([2]; IV, 2 mg/kg, mean): 101 min
- Tmax ([2]; IV, 2 mg/kg, mean): 4.8 min
- clearance ([2]; IV, 2 mg/kg, mean): 46.8 mL/min/kg
- MRT last ([2]; IV, 2 mg/kg, mean): 87.6 min
- half-life ([2]; IV, 2 mg/kg, mean): 99.6 min
- CL/F ([2]; PO, 10 mg/kg, mean): 525 mL/min/kg
- Cmax ([2]; PO, 10 mg/kg, mean): 85.7 ng/mL
- MRT inf ([2]; PO, 10 mg/kg, mean): 181 min
- Tmax ([2]; PO, 10 mg/kg, mean): 70.2 min
- MRT last ([2]; PO, 10 mg/kg, mean): 151 min
- half-life ([2]; PO, 10 mg/kg, mean): 112 min
- Vd/F ([2]; PO, 10 mg/kg, mean): 84.8 L/kg
- AUC(0-inf) [2, 6]: 714 ng·h/mL
- AUC(0-t) [2, 7]: 695 ng·h/mL
- Vd [2, 8]: 4.77 L/kg
- Vd [2, 9]: 6.74 L/kg
- AUC(0-inf) [2, 10]: 714 ng·h/mL
- AUC(0-t) [2, 11]: 695 ng·h/mL
- AUC(0-inf) [2, 12]: 334 ng·h/mL
- AUC(0-t) [2, 13]: 315 ng·h/mL
- AUC(0-inf) [2, 14]: 334 ng·h/mL
- AUC(0-t) [2, 15]: 315 ng·h/mL
- inhibition against a larger kinase panel (larger kinase panel): no significant inhibition
- microsomal CLint [3]: 243 µL/min/mg
- half-life [3]: 11.4 min
- ER [3]: 0.91
- CLh [3]: 82.27
- inhibitory activity against any of the other PAK family members [4]: no significant inhibitory activity
- microsomal CLint [5]: 159 µL/min/mg
- half-life [5]: 17.4 min
- ER [5]: 0.84
- CLh [5]: 46.14

SMILES: CSc1ccc(-c2nc3cccc(C)n3c2Nc2ccc3c(c2)OCCO3)cc1 [Compound C273-0489]
- IC50 (PAK1): 470 nM
- ER [1]: 0.89
- CLh [1]: 19.24
- microsomal CLint [1]: 199 µL/min/mg
- half-life [1]: 13.9 min
- K el ([2]; IV, 2 mg/kg, mean): 0.07 h⁻¹
- C0 ([2]; IV, 2 mg/kg, mean): 71.7 ng/mL
- Cmax ([2]; IV, 2 mg/kg, mean): 53.4 ng/mL
- MRT inf ([2]; IV, 2 mg/kg, mean): 736 min
- Tmax ([2]; IV, 2 mg/kg, mean): 4.8 min
- clearance ([2]; IV, 2 mg/kg, mean): 214 mL/min/kg
- MRT last ([2]; IV, 2 mg/kg, mean): 391 min
- half-life ([2]; IV, 2 mg/kg, mean): 636 min
- Cmax ([2]; PO, 10 mg/kg, mean): 17.4 ng/mL
- Tmax ([2]; PO, 10 mg/kg, mean): 200 min
- MRT last ([2]; PO, 10 mg/kg, mean): 238 min
- AUC(0-inf) [2, 6]: 156 ng·h/mL
- AUC(0-t) [2, 7]: 129 ng·h/mL
- Vd [2, 8]: 158 L/kg
- Vd [2, 9]: 197 L/kg
- AUC(0-t) [2, 13]: 92.7 ng·h/mL
- inhibition against a larger kinase panel (larger kinase panel): no significant inhibition
- microsomal CLint [3]: 664 µL/min/mg
- half-life [3]: 4.18 min
- ER [3]: 0.97
- CLh [3]: 87.00
- inhibitory activity against any of the other PAK family members [4]: no significant inhibitory activity
- microsomal CLint [5]: 1830 µL/min/mg
- half-life [5]: 1.51 min
- ER [5]: 0.98
- CLh [5]: 54.10

— patent publication US11065251B2, “PAK1 inhibitors and uses thereof” (Albert Einstein College of Medicine, priority 2016, dated 2021)
